pIC50: −log10 of the molar value.
test system: normal human neonatal foreskin epidermal keratinocytes (NHEK-F); assay: Cell proliferation inhibition test; format: cell-based; settings: Keratinocyte, 72 h, NHEK-F cells, three days incubation, ATPlite or CellTiterGlo, read-out: IC50 (concentration of the compound at which the cell count is reduced by 50%)
Protocol: 2×10^3 normal human neonatal foreskin epidermal keratinocytes (NHEK-F) (Kurabo, KK-4009) were suspended in 100 μL of Humedia-EG2 (Kurabo, KK-2150S) medium, plated in a 96-well plate and incubated overnight. The test compound was added on the following day and the cells were incubated for further three days. The cell count was determined using ATPlite (PerkinElmer, 6016739) or CellTiterGlo (Promega, G7573).
The inhibition rate was calculated from the following formula to determine the concentration of the compound at which the cell count is reduced by 50% (IC50). Inhibition rate (%)=100−(cell count in the presence of test compound/cell count in the absence of test compound)×100

Structure (SMILES)	pIC50
N#Cc1ccccc1Cn1ccc2cc(Nc3ncc(C4CC4)cc3C(=O)O)ccc21 [Example 452, 2-((1-(2-cyanobenzyl)-1H-indol-5-yl)amino)-5-cyclopropylnicotinic acid]	7.00 to 8.00
Cn1ccc2cc(Nc3ncc(C4CC4)cc3C(=O)O)cc(/C=C/C(C)(C)C)c21 [Example 594, 5-cyclopropyl-2-((7-((1E)-3,3-dimethylbut-1-en-1-yl)-1-methyl-1H-indol-5-yl)amino)nicotinic acid]	≥ 8.00
COCCNc1cccc(Cn2ccc3cc(Nc4ncc(C5CC5)cc4C(=O)O)ccc32)c1 [Example 510, 5-cyclopropyl-2-((1-(3-((2-methoxyethyl)amino)benzyl)-1H-indol-5-yl)amino)nicotinic acid]	≥ 8.00
O=C(O)c1cc(C2CC2)cnc1Nc1cccc2c(=O)n(-c3ccccc3)cnc12 [Example 369, 5-cyclopropyl-2-((4-oxo-3-phenyl-3,4-dihydroquinazolin-8-yl)amino)nicotinic acid]	6.00 to 7.00
O=C(O)c1cc(C2CC2)cnc1Nc1ccc2c(ccn2Cc2ccccc2Cl)c1 [Example 459, 2-((1-(2-chlorobenzyl)-1H-indol-5-yl)amino)-5-cyclopropylnicotinic acid]	≥ 8.00
Cn1ccc2cc(Nc3ncc(C4CC4)cc3C(=O)O)cc(-c3ccccc3C(F)(F)F)c21 [Example 479]	≥ 8.00
O=C(O)c1cc(C2CC2)cnc1Nc1ccc2c(-c3ccccc3)ncnc2c1 [Example 529, 5-cyclopropyl-2-((4-phenylquinazolin-7-yl)amino)nicotinic acid]	7.00 to 8.00
O=C(O)c1cc(C2CC2)cnc1Nc1ccc2c(c1)cc(-c1ccccc1)n2Cc1ccccc1 [Example 387, 2-((1-benzyl-2-phenyl-1H-indol-5-yl)amino)-5-cyclopropylnicotinic acid]	7.00 to 8.00
O=C(O)c1cc(C2CC2)cnc1Nc1ccc2c(ccn2Cc2ccccc2C(F)(F)F)c1 [Example 449, 5-cyclopropyl-2-((1-(2-(trifluoromethyl)benzyl)-1H-indol-5-yl)amino)nicotinic acid]	7.00 to 8.00
O=C(O)c1cc(Cl)ccc1Nc1ccc2c(ccn2-c2cscn2)c1 [Example 271, 5-chloro-2-((1-(thiazol-4-yl)-1H-indol-5-yl)amino)benzoic acid]	7.00 to 8.00
O=C(O)c1cc(Cl)ccc1Nc1ccc2c(ccn2Cc2cccnc2)c1 [Example 349, 5-chloro-2-((1-(pyridin-3-ylmethyl)-1H-indol-5-yl)amino)benzoic acid]	6.00 to 7.00
O=C(O)c1cc(C2CC2)cnc1Nc1ccc2c(ccn2Cc2ccc(C(F)(F)F)cc2)c1 [Example 451, 5-cyclopropyl-2-((1-(4-(trifluoromethyl)benzyl)-1H-indol-5-yl)amino)nicotinic acid]	7.00 to 8.00
Cn1cc(-c2ccccc2)c2cc(Nc3ncc(Cl)cc3C(=O)O)ccc21 [Example 647, 5-chloro-2-((1-methyl-3-phenyl-1H-indol-5-yl)amino)nicotinic acid]	7.00 to 8.00
Cn1ccc2cc(Nc3ncc(C4CC4)cc3C(=O)O)cc(-c3cccc(C(F)(F)F)c3)c21 [Example 480]	≥ 8.00
Cc1cn(CC(C)C)c2ccc(Nc3ncc(C4CC4)cc3C(=O)O)cc12 [Example 535, 5-cyclopropyl-2-((1-isobutyl-3-methyl-1H-indol-5-yl)amino)nicotinic acid]	≥ 8.00
O=C(O)c1cc(C2CC2)cnc1Nc1cccc2c1ccn2CC1CCCCC1 [Example 429, 2-((1-(cyclohexylmethyl)-1H-indol-4-yl)amino)-5-cyclopropylnicotinic acid]	≥ 8.00
O=C(O)c1cc(C2CC2)cnc1Nc1ccc2ncnc(-c3ccccc3)c2c1 [Example 533, 5-cyclopropyl-2-((4-phenylquinazolin-6-yl)amino)nicotinic acid]	6.00 to 7.00
O=C(O)c1cc(C2CC2)cnc1Nc1ccc2cccc(-c3ccccc3)c2c1 [Example 179, 5-cyclopropyl-2-((8-phenylnaphthalen-2-yl)amino)nicotinic acid]	≥ 8.00
Cn1ccc2cc(Nc3ncc(C4CC4)cc3C(=O)O)cc(-c3ccc(-c4ccccc4)cc3)c21 [Example 191, 2-((7-([1,1′-biphenyl]-4-yl)-1-methyl-1H-indol-5-yl)amino)-5-cyclopropylnicotinic acid]	≥ 8.00
O=C(O)c1cc(Cl)ccc1Nc1ccc2c(ccn2-c2cnc3ccccc3c2)c1 [Example 317, 5-chloro-2-((1-(quinolin-3-yl)-1H-indol-5-yl)amino)benzoic acid]	≥ 8.00
COCCn1ccc2cc(Nc3ncc(C4CC4)cc3C(=O)O)ccc21 [Example 129, 5-cyclopropyl-2-((1-(2-methoxyethyl)-1H-indol-5-yl)amino)nicotinic acid]	6.00 to 7.00
Cn1ccc2cc(Nc3ncc(C4CC4)cc3C(=O)O)cc(-c3ccc(C(F)(F)F)cc3)c21 [Example 481]	≥ 8.00

Structure (SMILES)	pIC50
O=C(O)c1cc(Cl)ccc1Nc1ccc2c(ccn2Cc2cccc(OCc3ccccn3)c2)c1 [Example 19, 5-chloro-2-((1-(3-(pyridin-2-ylmethoxy)benzyl)-1H-indol-5-yl)amino)benzoic acid]	≥ 8.00
O=C(O)c1cc(C2CC2)cnc1Nc1ccc2c(ccn2Cc2cc(F)c(F)cc2F)c1 [Example 643, 5-cyclopropyl-2-((1-(2,4,5-trifluorobenzyl)-1H-indol-5-yl)amino)nicotinic acid]	≥ 8.00
O=C(O)c1cc(C2CC2)cnc1Nc1ccc2c(-c3ccccc3)cccc2c1 [Example 177, 5-cyclopropyl-2-((5-phenylnaphthalen-2-yl)amino)nicotinic acid]	≥ 8.00
Cn1ccc2cc(Nc3ncc(C4CC4)cc3C(=O)O)cc(C3=CCOCC3)c21 [Example 471, 5-cyclopropyl-2-((7-(3,6-dihydro-2H-pyran-4-yl)-1-methyl-1H-indol-5-yl)amino)nicotinic acid]	≥ 8.00
CCn1c2c(c3cc(Nc4ncc(C5CC5)cc4C(=O)O)ccc31)CCCC2 [Example 166, 5-cyclopropyl-2-((9-ethyl-2,3,4,9-tetrahydro-1H-carbazol-6-yl)amino)nicotinic acid]	6.00 to 7.00
O=C(O)c1cc(C2CC2)cnc1Nc1cccc2c1ccn2CC1CCCCO1 (stereo not shown) [Example 423, 5-cyclopropyl-2-((1-((tetrahydro-2H-pyran-2-yl)methyl)-1H-indol-4-yl)amino)nicotinic acid]	7.00 to 8.00
CSc1nccc(-n2ccc3cc(Nc4ccc(Cl)cc4C(=O)O)ccc32)n1 [Example 319, 5-chloro-2-((1-(2-(methylthio)pyrimidin-4-yl)-1H-indol-5-yl)amino)benzoic acid]	7.00 to 8.00
CCn1c(C(C)(C)C)cc2cc(Nc3ncc(C4CC4)cc3C(=O)O)ccc21 [Example 158, 2-((2-(tert-butyl)-1-ethyl-1H-indol-5-yl)amino)-5-cyclopropylnicotinic acid]	7.00 to 8.00
CC(C)(C)c1cc2cc(Nc3ncc(C4CC4)cc3C(=O)O)ccc2[nH]1 [Example 389, 2-((2-(tert-butyl)-1H-indol-5-yl)amino)-5-cyclopropylnicotinic acid]	6.00 to 7.00
O=C(O)c1cc(C2CC2)cnc1Nc1ccc2ccn(-c3ccccc3)c2c1 [Example 525, 5-cyclopropyl-2-((1-phenyl-1H-indol-6-yl)amino)nicotinic acid]	≥ 8.00
COc1ccc(Cn2ccc3cc(Nc4ncc(C5CC5)cc4C(=O)O)ccc32)cc1 [Example 623, 5-cyclopropyl-2-((1-(4-methoxybenzyl)-1H-indol-5-yl)amino)nicotinic acid]	7.00 to 8.00
O=C(O)c1cc(Cl)ccc1Nc1ccc2c(c1)c(C(=O)c1ccccc1)cn2Cc1ccccc1 [Example 86, 2-((3-benzoyl-1-benzyl-1H-indol-5-yl)amino)-5-chlorobenzoic acid]	6.00 to 7.00
COC(=O)c1cc(C2CC2)cnc1Nc1ccc2c(c1)c(-c1cccc(C#N)c1)cn2C [Example 630]	6.00 to 7.00
COc1cnc(Nc2ccc3c(ccn3Cc3ccccc3)c2)c(C(=O)O)c1 [Example 132, 2-((1-benzyl-1H-indol-5-yl)amino)-5-methoxynicotinic acid]	7.00 to 8.00
O=C(O)c1cc(Cl)ccc1Nc1ccc2c(ccn2Cc2ccccn2)c1 [Example 341, 5-chloro-2-((1-(pyridin-2-ylmethyl)-1H-indol-5-yl)amino)benzoic acid]	7.00 to 8.00
O=C(O)c1nc(C2CC2)ccc1Nc1ccc2c(ccn2Cc2ccccc2)c1 [Example 210, 3-((1-benzyl-1H-indol-5-yl)amino)-6-cyclopropylpicolinic acid]	7.00 to 8.00
Cn1ccc2cc(Nc3ncc(C4CC4)cc3C(=O)O)cc(-c3cc(F)ccc3F)c21 [Example 590, 5-cyclopropyl-2-((7-(2,5-difluorophenyl)-1-methyl-1H-indol-5-yl)amino)nicotinic acid]	≥ 8.00
O=C(O)c1cc(C2CC2)cnc1Nc1cnc2c(ccn2Cc2ccccc2)c1 [Example 545, 2-((1-benzyl-1H-pyrrolo(2,3-b)pyridin-5-yl)amino)-5-cyclopropylnicotinic acid]	≥ 8.00
O=C(O)c1cc(C2CC2)cnc1Nc1ccc2c(ccn2Cc2cccc(O)c2)c1 [Example 505, 5-cyclopropyl-2-((1-(3-hydroxybenzyl)-1H-indol-5-yl)amino)nicotinic acid]	≥ 8.00
Cn1ccc2cc(Nc3ncc(C4CC4)cc3C(=O)O)cc(-c3ccccc3-c3ccccc3)c21 [Example 463, 2-((7-([1,1′-biphenyl]-2-yl)-1-methyl-1H-indol-5-yl)amino)-5-cyclopropylnicotinic acid]	≥ 8.00
Cn1ccc2cc(Nc3ncc(Cl)cc3C(=O)O)cc(-c3ccccc3)c21 [Example 625, 5-chloro-2-((1-methyl-7-phenyl-1H-indol-5-yl)amino)nicotinic acid]	7.00 to 8.00

From patent US9624215B2, “Amine derivative or salt thereof” (TOYAMA CHEMICAL CO., LTD., priority 2012, dated 2017)
